ChEMBL document CHEMBL1201862, “PubChem BioAssay data set” (2004)
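A five-concentration, 48-hour dose response in 96-well plates underlies each endpoint, interpolated linearly between surrounding concentrations. GI50 marks 50% less growth.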 Activity calls are given as the source filed them. Cut-off read from the data, not from the text of the source: active = GI50 up to about 1.1 µM and inactive = higher.

Key:
Test in all cases: NCI-60 cell line screen, 48 h
CCRF-CEM = system: CCRF-CEM
K562 = system: K562
SF-268 = system: SF-268
PC-3 = system: PC-3
SK-OV-3 = system: SK-OV-3
SF-539 = system: SF-539
U-251 = system: U-251
786-0 = system: 786-0
SR = system: SR
A549 = system: A549
SK-MEL-2 = system: SK-MEL-2
TK-10 = system: TK-10
NCI/ADR-RES = system: NCI/ADR-RES
SNB-19 = system: SNB-19
RPMI-8226 = system: RPMI-8226
MDA-MB-435 = system: MDA-MB-435
M14 = system: M14
UACC-257 = system: UACC-257
DU-145 = system: DU-145
OVCAR-4 = system: OVCAR-4
HOP-62 = system: HOP-62
SK-MEL-28 = system: SK-MEL-28
MCF7 = system: MCF7
OVCAR-8 = system: OVCAR-8
SNB-75 = system: SNB-75
UACC-62 = system: UACC-62
SF-295 = system: SF-295
SK-MEL-5 = system: SK-MEL-5
IGROV-1 = system: IGROV-1
HCC 2998 = system: HCC 2998
A498 = system: A498
MDA-MB-231 = system: MDA-MB-231
SW-620 = system: SW-620
LOX IMVI = system: LOX IMVI
EKVX = system: EKVX
NCI-H460 = system: NCI-H460
HOP-92 = system: HOP-92
NCI-H23 = system: NCI-H23
MDA-N = system: MDA-N
UO-31 = system: UO-31
CAKI-1 = system: CAKI-1
T47D = system: T47D
COLO 205 = system: COLO 205
OVCAR-3 = system: OVCAR-3
NCI-H226 = system: NCI-H226
OVCAR-5 = system: OVCAR-5
KM12 = system: KM12
Hs-578T = system: Hs-578T
HCT-15 = system: HCT-15
RXF 393 = system: RXF 393
MOLT-4 = system: MOLT-4
NCI-H522 = system: NCI-H522
ACHN = system: ACHN
SN12C = system: SN12C
BT-549 = system: BT-549
HCT-116 = system: HCT-116
Malme-3M = system: Malme-3M
HT-29 = system: HT-29

## O=c1c2ccccc2oc2nc3n(c(=O)c12)CCCS3
CCRF-CEM
  GI50: > 100 µM (inactive)
K562
  GI50: > 100 µM (inactive)
SF-268
  GI50: > 100 µM (inactive)
PC-3
  GI50: > 100 µM (inactive)
SK-OV-3
  GI50: > 100 µM (inactive)
SF-539
  GI50: > 100 µM (inactive)
U-251
  GI50: > 100 µM (inactive)
786-0
  GI50: > 100 µM (inactive)
SR
  GI50: > 100 µM (inactive)
A549
  GI50: > 100 µM (inactive)
SK-MEL-2
  GI50: > 100 µM (inactive)
TK-10
  GI50: > 100 µM (inactive)
NCI/ADR-RES
  GI50: > 100 µM (inactive)
SNB-19
  GI50: > 100 µM (inactive)
RPMI-8226
  GI50: > 100 µM (inactive)
MDA-MB-435
  GI50: > 100 µM (inactive)
M14
  GI50: > 100 µM (inactive)
UACC-257
  GI50: > 100 µM (inactive)
DU-145
  GI50: > 100 µM (inactive)
OVCAR-4
  GI50: > 100 µM (inactive)
HOP-62
  GI50: > 100 µM (inactive)
SK-MEL-28
  GI50: > 100 µM (inactive)
MCF7
  GI50: > 100 µM (inactive)
OVCAR-8
  GI50: > 100 µM (inactive)
SNB-75
  GI50: 63.4 µM (inactive)
UACC-62
  GI50: > 100 µM (inactive)
SF-295
  GI50: > 100 µM (inactive)
SK-MEL-5
  GI50: > 100 µM (inactive)
IGROV-1
  GI50: > 100 µM (inactive)
HCC 2998
  GI50: > 100 µM (inactive)
A498
  GI50: > 100 µM (inactive)
MDA-MB-231
  GI50: > 100 µM (inactive)
SW-620
  GI50: > 100 µM (inactive)
LOX IMVI
  GI50: > 100 µM (inactive)
EKVX
  GI50: > 100 µM (inactive)
NCI-H460
  GI50: > 100 µM (inactive)
HOP-92
  GI50: > 100 µM (inactive)
NCI-H23
  GI50: > 100 µM (inactive)
MDA-N
  GI50: > 100 µM (inactive)
UO-31
  GI50: 15.7 µM (inactive)
CAKI-1
  GI50: > 100 µM (inactive)
T47D
  GI50: > 100 µM (inactive)
COLO 205
  GI50: > 100 µM (inactive)
OVCAR-3
  GI50: > 100 µM (inactive)
NCI-H226
  GI50: > 100 µM (inactive)
OVCAR-5
  GI50: > 100 µM (inactive)
KM12
  GI50: > 100 µM (inactive)
Hs-578T
  GI50: > 100 µM (inactive)
HCT-15
  GI50: > 100 µM
RXF 393
  GI50: > 100 µM (inactive)
MOLT-4
  GI50: > 100 µM (inactive)
NCI-H522
  GI50: > 100 µM (inactive)
ACHN
  GI50: > 100 µM (inactive)
SN12C
  GI50: > 100 µM (inactive)
BT-549
  GI50: > 100 µM (inactive)
HCT-116
  GI50: > 100 µM (inactive)
Malme-3M
  GI50: > 100 µM (inactive)

## CC1OC(OC2C(CO)OC(O[C@H]3CC[C@@]4(C)C(=CC[C@H]5[C@@H]6C[C@@H]7O[C@](O)(CC[C@H](CO)COC8OC(CO)C(O)C(O)C8O)[C@@H](C)[C@@H]7[C@@]6(C)CC[C@@H]54)C3)C(OC3OC(C)C(O)C(O)C3O)C2O)C(O)C(O)C1O (some centres undefined)
CCRF-CEM
  GI50: > 100 µM (inactive)
K562
  GI50: > 100 µM (inactive)
SF-268
  GI50: > 100 µM (inactive)
PC-3
  GI50: > 100 µM (inactive)
SK-OV-3
  GI50: > 100 µM (inactive)
SF-539
  GI50: > 100 µM (inactive)
U-251
  GI50: > 100 µM (inactive)
786-0
  GI50: > 100 µM (inactive)
SR
  GI50: > 100 µM (inactive)
A549
  GI50: > 100 µM (inactive)
SK-MEL-2
  GI50: > 100 µM (inactive)
TK-10
  GI50: > 100 µM (inactive)
NCI/ADR-RES
  GI50: 91.4 µM (inactive)
SNB-19
  GI50: > 100 µM (inactive)
RPMI-8226
  GI50: > 100 µM (inactive)
MDA-MB-435
  GI50: > 100 µM (inactive)
M14
  GI50: > 100 µM (inactive)
UACC-257
  GI50: > 100 µM (inactive)
DU-145
  GI50: > 100 µM (inactive)
OVCAR-4
  GI50: > 100 µM (inactive)
HOP-62
  GI50: > 100 µM (inactive)
SK-MEL-28
  GI50: > 100 µM (inactive)
MCF7
  GI50: > 100 µM (inactive)
OVCAR-8
  GI50: > 100 µM (inactive)
SNB-75
  GI50: > 100 µM (inactive)
UACC-62
  GI50: > 100 µM (inactive)
SF-295
  GI50: > 100 µM (inactive)
SK-MEL-5
  GI50: > 100 µM (inactive)
HT-29
  GI50: > 100 µM (inactive)
IGROV-1
  GI50: > 100 µM (inactive)
HCC 2998
  GI50: > 100 µM (inactive)
A498
  GI50: > 100 µM (inactive)
MDA-MB-231
  GI50: > 100 µM (inactive)
SW-620
  GI50: > 100 µM (inactive)
LOX IMVI
  GI50: > 100 µM (inactive)
EKVX
  GI50: > 100 µM (inactive)
NCI-H460
  GI50: > 100 µM (inactive)
HOP-92
  GI50: > 100 µM (inactive)
NCI-H23
  GI50: > 100 µM (inactive)
MDA-N
  GI50: > 100 µM (inactive)
UO-31
  GI50: > 100 µM (inactive)
CAKI-1
  GI50: > 100 µM (inactive)
T47D
  GI50: > 100 µM (inactive)
COLO 205
  GI50: > 100 µM (inactive)
OVCAR-3
  GI50: > 100 µM (inactive)
OVCAR-5
  GI50: > 100 µM (inactive)
KM12
  GI50: > 100 µM (inactive)
Hs-578T
  GI50: > 100 µM (inactive)
HCT-15
  GI50: 54 µM
RXF 393
  GI50: > 100 µM (inactive)
MOLT-4
  GI50: > 100 µM (inactive)
NCI-H522
  GI50: > 100 µM (inactive)
ACHN
  GI50: > 100 µM (inactive)
SN12C
  GI50: > 100 µM (inactive)
BT-549
  GI50: > 100 µM (inactive)
HCT-116
  GI50: > 100 µM (inactive)
Malme-3M
  GI50: > 100 µM (inactive)

## COc1ccc(C2CC(c3ccc4ccccc4c3O)=NN2C(C)=O)cc1OC (centres undefined)
CCRF-CEM
  GI50: 18.8 µM (inactive)
K562
  GI50: 78.5 µM (inactive)
SF-268
  GI50: 61.7 µM (inactive)
PC-3
  GI50: > 100 µM (inactive)
SK-OV-3
  GI50: > 100 µM (inactive)
SF-539
  GI50: > 100 µM (inactive)
U-251
  GI50: > 100 µM (inactive)
786-0
  GI50: > 100 µM (inactive)
SR
  GI50: 19.1 µM (inactive)
A549
  GI50: > 100 µM (inactive)
SK-MEL-2
  GI50: > 100 µM (inactive)
TK-10
  GI50: > 100 µM (inactive)
NCI/ADR-RES
  GI50: > 100 µM (inactive)
RPMI-8226
  GI50: > 100 µM (inactive)
MDA-MB-435
  GI50: > 100 µM (inactive)
M14
  GI50: > 100 µM (inactive)
UACC-257
  GI50: > 100 µM (inactive)
DU-145
  GI50: > 100 µM (inactive)
OVCAR-4
  GI50: > 100 µM (inactive)
HOP-62
  GI50: > 100 µM (inactive)
SK-MEL-28
  GI50: > 100 µM (inactive)
MCF7
  GI50: > 100 µM (inactive)
OVCAR-8
  GI50: > 100 µM (inactive)
SNB-75
  GI50: > 100 µM (inactive)
UACC-62
  GI50: 75.9 µM (inactive)
SF-295
  GI50: > 100 µM (inactive)
SK-MEL-5
  GI50: > 100 µM (inactive)
HT-29
  GI50: > 100 µM (inactive)
IGROV-1
  GI50: > 100 µM (inactive)
HCC 2998
  GI50: > 100 µM (inactive)
A498
  GI50: > 100 µM (inactive)
MDA-MB-231
  GI50: > 100 µM (inactive)
SW-620
  GI50: > 100 µM (inactive)
NCI-H460
  GI50: > 100 µM (inactive)
HOP-92
  GI50: > 100 µM (inactive)
NCI-H23
  GI50: > 100 µM (inactive)
MDA-N
  GI50: > 100 µM (inactive)
UO-31
  GI50: > 100 µM (inactive)
CAKI-1
  GI50: > 100 µM (inactive)
T47D
  GI50: > 100 µM (inactive)
COLO 205
  GI50: > 100 µM (inactive)
OVCAR-3
  GI50: > 100 µM (inactive)
NCI-H226
  GI50: > 100 µM (inactive)
OVCAR-5
  GI50: > 100 µM (inactive)
KM12
  GI50: > 100 µM (inactive)
Hs-578T
  GI50: 71.1 µM (inactive)
HCT-15
  GI50: > 100 µM
RXF 393
  GI50: > 100 µM (inactive)
MOLT-4
  GI50: 55.1 µM (inactive)
NCI-H522
  GI50: > 100 µM (inactive)
ACHN
  GI50: > 100 µM (inactive)
SN12C
  GI50: > 100 µM (inactive)
BT-549
  GI50: > 100 µM (inactive)
HCT-116
  GI50: > 100 µM (inactive)
Malme-3M
  GI50: > 100 µM (inactive)
